Consider three compounds from patent publication US20230123277A1, “COMPOSITIONS COMPRISING 2'-DEOXYCYTIDINE ANALOGS AND USE THEREOF FOR THE TREATMENT OF SICKLE CELL DISEASE AND THALASSEMIA” (AkiraBio, Inc., priority 2021, published 2023).

Data set [1] deals with pediatric brain tumor models. The conditions noted are these: background statement; cited from earlier work.
The nature of data set [2]: Relative thermodynamic stability of crystalline polymorphs (DSC). The conditions noted are these: Form A compared with Form F, from melting temperatures. Type of data set: physicochemical. As to the method: DSC ANALYSIS. Thermal events (i.e., melting, re-crystallization) were obtained from DSC thermograms, recorded with a heat flux DSC3+ STARe system (Mettler-Toledo GmbH, Switzerland). The DSC3+ was calibrated for temperature and enthalpy with a small piece of indium (m.p.=156.6° C.; δHf=28.45 J/g) and zinc (m.p.=419.6° C.; δHf=107.5 J/g). Samples (circa 2 mg) were sealed in standard 40 μL aluminum pans, pin-holed and heated in the DSC from 25° C. to 300° C., at a heating rate of 10° C./min. Dry N2 gas, at a flow rate of 50 mL/min was used to purge the DSC equipment during measurement. The cycling DSC experiments were measured in standard 40 μL aluminum pans, pin-holed and heated in the DSC from 25° C. to variable temperatures, then cooled back to 25° C. The heating and cooling rate was 10° C./min. Dry N2 gas, at a flow rate of 50 mL/min was used to purge the DSC equipment during measurement. Afterwards the samples were recovered and analyzed by HT-XRPD.
Form A obtained from the solvent equilibration experiment at RT in TFE was used for the analytical characterization. […] (FIG. 12A). […] The LCMS analysis confirmed the Form A's integrity with a purity of 100% (area %) (FIG. 12C).
Form F obtained from the evaporative crystallization experiment using DMF/acetonitrile (80/20, v/v) was used for characterization. […]

As for `Nc1ncn([C@H]2C[C@H](O)[C@@H](CO)S2)c(=O)n1` [5-aza-4′-thio-2′-deoxycytidine], the therapeutic response result in data set [1] was “no significant therapeutic response”.

For the compound `Nc1nc(=O)n([C@H]2C[C@H](O)[C@@H](CO)O2)cc1F` [5-fluoro-2′-deoxycytidine, reference compound], in data set [1], the therapeutic response entry was “no significant therapeutic response”.

For the compound `Nc1ncn([C@H]2C[C@H](O)[C@@H](CO)S2)c(=O)n1` [Form A, 5-aza-4′-thio-2′-deoxycytidine], the “thermodynamic stability of the polymorph” value in data set [2] is given as “thermodynamically more stable form”.
